Assay results: patent US6100273A, “Water soluble camptothecin derivatives” (priority 1997, dated 2000)
Structures can show the parent of a compound that is named as a salt. Where two headings read alike, the source gives them in different places.

Legend:
topoisomerase Type I = target: T1, topoisomerase Type I (Bos taurus, UniProt F1MN93); assay: biochemical
T1 sequence (F1MN93 1-767): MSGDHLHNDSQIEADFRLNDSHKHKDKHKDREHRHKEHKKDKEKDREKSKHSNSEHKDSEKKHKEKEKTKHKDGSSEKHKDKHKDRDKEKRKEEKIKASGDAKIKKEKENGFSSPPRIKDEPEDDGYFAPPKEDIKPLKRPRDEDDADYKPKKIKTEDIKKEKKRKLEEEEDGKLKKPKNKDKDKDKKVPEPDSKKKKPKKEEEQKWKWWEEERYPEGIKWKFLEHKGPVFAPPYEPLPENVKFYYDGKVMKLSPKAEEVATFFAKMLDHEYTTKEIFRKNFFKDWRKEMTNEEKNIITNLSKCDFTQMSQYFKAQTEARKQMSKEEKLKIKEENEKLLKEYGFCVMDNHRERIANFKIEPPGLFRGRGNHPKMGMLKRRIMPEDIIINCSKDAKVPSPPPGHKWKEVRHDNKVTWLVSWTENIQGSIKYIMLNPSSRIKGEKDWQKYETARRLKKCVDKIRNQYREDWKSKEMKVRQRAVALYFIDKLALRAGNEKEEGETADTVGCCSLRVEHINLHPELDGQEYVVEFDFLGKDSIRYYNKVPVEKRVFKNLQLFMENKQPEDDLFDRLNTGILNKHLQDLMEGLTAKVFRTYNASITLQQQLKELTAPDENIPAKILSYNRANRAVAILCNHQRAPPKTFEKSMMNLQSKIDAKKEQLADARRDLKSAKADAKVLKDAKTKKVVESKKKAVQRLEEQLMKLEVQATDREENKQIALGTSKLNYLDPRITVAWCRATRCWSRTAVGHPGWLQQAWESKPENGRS
Description: Cleavable Complex in vitro Assay
The relative topoisomerase Type I inhibitory activity of the compounds of formula (I) was determined by cleavable complex in vitro assay. This assay performed according to the method described in Hsiang, Y. et al., J. Biol. Chem., 260:14873-14878 (1985), correlates well with in vivo anti-tumor activity of topoisomerase inhibitors in animal models of cancer, e.g., camptothecin and its analogs. See Hsiang et al., Cancer Research, 49:4385-4389 (1989) and Jaxel et al., Cancer Research, 49:1465-1469 (1989).

[1] = Wani et al.; cited from earlier work
[2] = cited from earlier work
leukemia (L-1210) = details: laboratory animals; cited from earlier work
certain solid tumors = details: laboratory animals; cited from earlier work
tumor = details: background on camptothecin; cited from earlier work
topoisomerase I = details: background on camptothecin; cited from earlier work
[3] = Oxidation during purification; format: physicochemical; details: oxidizes to the sulfinyl compound of Example 27
Description: Mp. 195° C. (dec). MS MH+554.

CCC1(O)C(=O)OCc2c1cc1n(c2=O)Cc2c-1nc1cc3c(cc1c2C[n+]1ccccc1)OCCO3 (racemic) [Example 31, 7-Pyridinium methylene-10,11 ethylenedioxy-20(R,S)-camptothecin chloride]
IC50 (topoisomerase Type I): > 1000 nM

CCC1(O)C(=O)OCc2c1cc1n(c2=O)Cc2cc3cc4c(cc3nc2-1)OCO4 (stereo not drawn) [10,11-methylenedioxycamptothecin]
potency relative to unsubstituted camptothecin [1]: more potent | water solubility ([2]; compared with camptothecin): as poor as camptothecin

CC[C@@]1(O)C(=O)OCc2c1cc1n(c2=O)Cc2cc3ccccc3nc2-1 [Camptothecin]
effectiveness in the treatment of leukemia (L-1210) (leukemia (L-1210)): effective | effectiveness in the treatment of certain solid tumors (certain solid tumors): effective | antitumor activity (tumor): potent antitumor agent | solubility in physiologically compatible, aqueous media [2]: essentially insoluble | topoisomerase I inhibition (topoisomerase I): topoisomerase I inhibitor

CCCCOP(=O)(Cc1c2c(nc3cc4c(cc13)OCCO4)-c1cc3c(c(=O)n1C2)COC(=O)[C@]3(O)CC)OCCCC [Example 15, 7-Di-n-butylphosphonomethylene-10,11-(ethylenedioxy)-20(S)-camptothecin]
IC50 (topoisomerase Type I): > 2000 nM

CC[C@@]1(O)C(=O)OCc2c1cc1n(c2=O)Cc2c-1nc1cc3c(cc1c2CSc1ccc(NC(C)=O)cc1)OCCO3 [Example 17, 7-(4-Acetamidophenylthio)methyl-10,11-(ethylenedioxy)-20(S)-camptothecin]
IC50 (topoisomerase Type I; read-out: topoisomerase Type I inhibitory activity (IC50), concentration at which 50% of the DNA substrate has been captured by topoisomerase 1): > 500 nM

CC[C@@]1(O)C(=O)OCc2c1cc1n(c2=O)Cc2c-1nc1cc3c(cc1c2CSc1ccc(N)cc1)OCCO3 [Example 18, 7-(4-Aminophenylthio)methyl-10,11-(ethylenedioxy)-20(S)-camptothecin]
IC50 (topoisomerase Type I): > 500 nM

CC[C@@]1(O)C(=O)OCc2c1cc1n(c2=O)Cc2c-1nc1cc3c(cc1c2C[S+]([O-])CCCN(C)C)OCCO3 (stereo partly drawn) [Example 27, 7-(3-Dimethylaminopropylsulfinyl)methyl-10,11-(ethylenedioxy)-20(S)-camptothecin]
oxidation during purification [3]: readily oxidize

CC[C@@]1(O)C(=O)OCc2c1cc1n(c2=O)Cc2c-1nc1cc3c(cc1c2CSc1ccc(NC(=O)CN(C)C)cc1)OCCO3 [Example 28, 7-(4-(2-Dimethylaminoacetamido)phenylthio)methyl-10,11-(ethylenedioxy)-20(S)-camptothecin]
IC50 (topoisomerase Type I): > 500 nM

CC[C@@]1(O)C(=O)OCc2c1cc1n(c2=O)Cc2c-1nc1cc3c(cc1c2C[n+]1cccc(CO)c1)OCCO3 [Example 36, 7-(3'-Hydroxymethylpyridinium)methylene-10,11-ethylenedioxy-20(S)-camptothecin chloride]
IC50 (topoisomerase Type I; concentration at which 50% of the DNA substrate has been captured by topoisomerase 1, read-out: topoisomerase Type I inhibitory activity (IC50)): > 500 nM

CC[C@@](O)(C(=O)O)c1cc2n(c(=O)c1CO)Cc1cc3ccccc3nc1-2 [sodium salt]
solubility in physiologically compatible, aqueous media [2]: soluble
